Experimental data as given in patent US10653680B2, “Treatment of impulsivity-related disorders” (OXFORD UNIVERSITY INNOVATION LIMITED, priority 2016, dated 2020).

Assays:
[1] = WO 2012/107735; cited from earlier work
healthy participants = assay: Cambridge Gambling Task (CGT); format: in vivo, human
Experimental: Twenty healthy participants (7 females, 13 males; mean age 25.1 years, range 20-38 years; mean BMI 22.7 kg/m^2, range 18.7-30.0 kg/m^2) were included in the study after giving full informed written consent.
Ebselen capsules and identical matching placebo (containing microcrystalline cellulose) were purchased from Shasun Pharmaceuticals Ltd. Participants were tested twice (seven days apart) receiving on one occasion ebselen and, on the other, placebo in a randomised, double-blind, cross-over design. Ebselen was administered in 6×200 mg capsules in three doses given over two days. The order of receiving either the ebselen or the placebo was randomised.
On the day before cognitive testing, participants took the first dose at 1 pm and the second dose at 10 pm. The final dose was taken around 3 hrs prior to cognitive testing. Participants were sent text message reminders a few minutes before they were due to take medication, and were asked to confirm receipt of the messages. The cognitive tasks were carried out immediately after a magnetic resonance spectroscopy study.
The Cambridge Gambling Task (CGT) from the Cambridge Neuropsychological Test Automated Battery (CANTAB, version 3.0.0, Cambridge Cognition Ltd., Cambridge, UK) (Rogers et al.; Neuropsychopharmacology, 1999, 20, 322-333; Clark et al.; Brain, 2008, 131, 1311-1322) assesses decision-making and risk-taking behaviour outside a learning context. In each trial, participants are shown ten boxes at the top of the screen, with some boxes being red and some being blue. The ratio of red to blue boxes varies from 9:1; 8:2; 7:3; 6:4; 5:5 and vice versa in a pseudo-random order.
Participants are informed that a yellow token is hidden inside one of the boxes and asked to indicate the colour box in which the token is most likely to be hidden, by pressing the colour (RED or BLUE) in a response panel at the bottom of the screen. Following their response, the participants indicate confidence in their selection by betting a proportion of points they are allocated (starting with 100 points). […] On each trial five bets are offered, and each bet represents a fixed percentage of the current total points score (5, 25, 50, 75 and 95%). Possible bets are presented sequentially in a box on the right of the display and participants touch the box to select the bet. If correct, the bet value is added to their total points on the left of the panel, and if incorrect, it is subtracted from the total points.
Participants are asked to accumulate as many points as possible. […] Participants perform the task in four blocks of two separate conditions, ascending and descending bet value (the condition order is counterbalanced across participants). In the ascending condition, bets increase at 2.5 s time intervals from 5% to 95% until participants make their selection. This means that if a participant bets at the first value presented, then they bet only 5% of their total points, and if they wait for the highest value, they bet 95% of their total points. In the descending condition bets start from 95% and decrease to 5%. Low bets in the ascend condition and high bets in the descend condition reveal an impulsive betting strategy, while high bets in both conditions reveal a risk taking or reward seeking strategy.
From the first stage of the task (selecting the likely colour of the box in which the token is hidden), the outcome measures are deliberation time and quality of decision making. Deliberation time is the mean latency from presentation of coloured boxes to participant selection. Quality of decision making refers to the proportion of trials on which the more likely outcome is chosen. From the gamble stage, the outcome measures are risk taking, risk adjustment and delay aversion. Risk taking refers to the mean proportion of current points that the subject stakes on each gamble when the more likely outcome is selected, and can be regarded as an index of reward seeking or loss aversion. […]

rats [2] = conditions: in rats; cited from earlier work
rats [3] = assay: Rodent Gambling Task (rGT); format: in vivo, rats (males; Long Evans)
Experimental: Testing was carried out in Vancouver (Canada) using rats (males; Long Evans from Charles River) which were given at least two weeks to acclimatise to the animal facility. They were housed in pairs on a 12 hour reverse light-dark cycle (lights off at 7 am). In the second week of acclimatisation, rats were handled briefly each day. […] For each task, there was then a habituation session to the operant boxes before training began.
Ebselen, cocaine and 2,5-dimethoxy-4-iodoamphetamine (DOI) were obtained from Sigma Aldrich, and MDL 100,907 was obtained from Tocris. Ebselen was dissolved in 0.5M DMSO and made up to injection volume (8 ml/kg) using 4% cyclodextrin. Cocaine and DOI were dissolved in 0.9% saline. MDL 100,907 was dissolved in 0.9% saline and the pH was adjusted to 6.25 using 1M NaOH and 0.1M HCl.
All data for the cognitive tasks are presented as mean+SEM change from baseline: • performance on drug day−performance on the previous day
The data were analysed with repeated measures ANOVA with dose as a within-subject factor. Where appropriate, post-hoc analysis was performed using Student's paired t-test.
The Latin square design (for both the 5-CSRTT and rGT experiments) was counterbalanced, based on performance in the last training day of each task. A one week wash-out period was given between drug-administration days. A baseline session was performed both the day before and the day after treatment to ensure stable off-drug performance.
This was performed as described previously (Zeeb et al; Neuropsychopharmacology, 2009, 34(10), 2329-2343), and is illustrated schematically in FIG. 2. Twenty one rats were trained to respond in standard 5-CSRTT boxes. Once reliable responding was established, different reward contingencies were associated with four nose-poke apertures (the central aperture was not used in this task). In each case, the reward size and probability of outcome differed between the choices. When no reward was delivered, a fixed-length time-out was delivered. The length of this time-out was varied between choices, with the longest time-out being associated with the largest, least likely reward. […] On the other 20% of occasions, a 10 second time-out was initiated. Once stable performance was achieved, rats were administered ebselen (2, 5 and 10 mg/kg i.p.) or vehicle in a Latin square design.

For `O=c1c2ccccc2[se]n1-c1ccccc1` [Ebselen, 2-phenyl-1,2-benzisoselenazol-3(2H)-one], the “transfer across the blood/brain barrier” value [1] is given as “capable of transferring across the blood/brain barrier”, the “effect on deliberation time” value (healthy participants; ebselen vs placebo) is given as “no significant effects” and the “effect on quality of decision making” value (healthy participants; ebselen vs placebo) is given as “no significant effects”. The “effect on reward seeking/risk taking” value (healthy participants; ebselen vs placebo) was “increase”, the “effect on risk adjustment” value (healthy participants; ebselen vs placebo) was “no significant effects” and the “effect on delay aversion” value (healthy participants; ebselen vs placebo, irrespective of probability of favourable outcome and token ratio) was “significant decrease”. The “Delay aversion (%), Mean ± SEM” value (healthy participants; human, ebselen 6x200 mg in three doses over two days, final dose around 3 hrs before testing, vs placebo p = 0.010) was 9.0 ± 2.14%, the “Reward seeking (%), Mean ± SEM” value (healthy participants; human, same regimen, vs placebo p = 0.046) was 63.9 ± 1.45% and the “Risk adjustment, Mean ± SEM” value (healthy participants; human, same regimen, vs placebo p = 0.107) was 2.1 ± 0.18. For the same molecule, the “Deliberation time (ms), Mean ± SEM” value (healthy participants; human, same regimen, vs placebo p = 0.131) was 1408 ± 78 ms, the “Quality of decision making (%), Mean ± SEM” value (healthy participants; human, same regimen, vs placebo p = 0.155) was 99.3 ± 0.3% and the LD50 concentration (rats [2]) was “greater than 1000 mg/kg”. The premature responses (rats [3]; ebselen 2 mg/kg i.p. vs vehicle, p=0.052) was “decreased premature responses”, the “response latency (increase in time to respond)” value (rats [3]; ebselen 2 mg/kg, paired t-test, p=0.056) was “trend” and the “reward latency (time taken to collect rewards)” value (rats [3]; ebselen 2 mg/kg, p=0.024) was “significant increase”. The premature responses (rats [3]; ebselen 5 mg/kg i.p. vs vehicle, p=0.077) was “decreased trend”, the “response latency (increase in time to respond)” value (rats [3]; ebselen 5 mg/kg, paired t-test, p=0.028) was “significant” and the reward latency (rats [3]; ebselen 5 mg/kg, p=0.069) was “trend increase”. The premature responses (rats [3]; ebselen 10 mg/kg i.p. vs vehicle, p=0.028) was “decreased premature responses”, the response latency (rats [3]; ebselen 10 mg/kg, paired t-test, p=0.246) was “no significant effect” and the “reward latency (time taken to collect rewards)” value (rats [3]; ebselen 10 mg/kg, p=0.005) was “significant increase”. The reward latency (rats [3]; ebselen 2, 5, 10 mg/kg i.p., overall ANOVA, p=0.062) was “no effect”, the response latency (rats [3]; ebselen 2, 5, 10 mg/kg i.p., overall ANOVA, p=0.090) was “no effect” and the “number of trials completed during the sessions” value (rats [3]; ebselen 2, 5, 10 mg/kg i.p., p=0.546) was “no effect”. For the same molecule, the choice behaviour (rats [3]; ebselen 2, 5, 10 mg/kg i.p., p=0.596) was “no effect” and the premature responses (rats [3]; ebselen 2, 5 and 10 mg/kg i.p. overall, p=0.088) was “overall trend to decreased premature responses”.
